Results from patent US20240300980A1, “HETEROCYCLIC COMPOUNDS AS KRAS INHIBITOR, AND PREPARATION THEREFOR AND USE THEREOF IN TREATMENT” (SHANGHAI KECHOW PHARMA, INC., priority 2021, published 2024).
pIC50: −log10 of the molar value. Where two headings read alike, the source gives them in different places.

Test system: AGS cells (KRAS^G12D)
Test: Detection of cell proliferation in vitro by MTT/MTS method (cell activity experiment)
Format: cell-based
Details: AGS cells, MTT/MTS, 3 days of drug treatment, read-out: AGS IC50
Outline: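 After 3-day compound exposure (final DMSO 0.5%), viability of AGS (KRAS G12D) cells, plated 1000/well one day before dosing, was measured at 490 nm following 4 h MTT or MTS incubation. IC50 was fitted from dose–effect curves relative to DMSO-treated wells.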

Compound `CCC1CCc2cc(O)cc(-c3ccc4c(N5C[C@H]6CC[C@@H](C5)N6)nc(OC[C@@]56CCCN5C[C@H](F)C6)nc4c3F)c21` (single isomer, unassigned) [Example 285] has a pIC50 of 8.15.

For `C#Cc1c(F)ccc2cc(O)cc(-c3ccc4c(N5C[C@H]6CC[C@@H](C5)[C@@H]6S(C)(=O)=O)nc(OC[C@@]56CCCN5C[C@H](F)C6)nc4c3F)c12` [Example 131, 5-ethynyl-6-fluoro-4-(8-fluoro-2-(((2R,7aS)-2-fluorotetrahydro-1H-pyrrolizin-7a(5H)-yl)methoxy)-4-((1R,5S, 8R)-8-(methylsulfonyl)-3-azabicyclo[3.2.1]octan-3-yl)quinazolin-7-yl)naphthalen-2-ol], the pIC50 was less than 5.60.

Work on `C#Cc1c(F)ccc2cc(O)cc(-c3ncc4c(N5C[C@H]6CC[C@@H](C5)S6(=O)=O)nc(OC[C@@]56CCCN5C[C@H](F)C6)nc4c3F)c12` [Example 23, (1R,5S)-3-(7-(8-ethynyl-7-fluoro-3-hydroxynaphthalen-1-yl)-8-fluoro-2-(((2R, 7aS)-2-fluorotetrahydro-1H-pyrrolizin-7a(5H)-yl)methoxy)pyrido[4,3-d]pyrimidin-4-yl)-8-thia-3-azabicyclo[3.2.1] octane 8,8-dioxide] yielded a pIC50 (Homo sapiens, AGS, 72 h) of 5.16.

`C#Cc1c(F)ccc2cc(O)cc(-c3ccc4c(N5CC6(CNC6)C5)nc(OC[C@@]56CCCN5C[C@H](F)C6)nc4c3F)c12` [Example 135, 5-ethynyl-6-fluoro-4-(8-fluoro-2-(((2R, 7aS)-2-fluorotetrahydro-1H-pyrrolizin-7a(5H)-yl)methoxy)-4-(2,6-diazaspiro[3.3]heptan-2-yl)quinazolin-7-yl)naphthalen-2-ol] gave a pIC50 (Homo sapiens, AGS, 72 h) of 5.92.

`C#Cc1c(F)ccc2cc(O)cc(-c3ncc4c(N5CCC6(CC5)CO[C@@H](C)[C@H]6N)nc(OC[C@@]56CCCN5C[C@H](F)C6)nc4c3F)c12` [Example 55, 4-(4-((3S,4S)-4-amino-3-methyl-2-oxa-8-azaspiro[4.5]decan-8-yl)-8-fluoro-2-(((2R, 7aS)-2-fluorotetrahydro-1H-pyrrolizin-7a(5H)-yl)methoxy)pyrido[4,3-d]pyrimidin-7-yl)-5-ethynyl-6-fluoronaphthalen-2-ol] gave a pIC50 (Homo sapiens, AGS, 72 h) of less than 5.60.
